Measurements as given in ChEMBL document CHEMBL2176989, “Design, synthesis, and pharmacological evaluation of piperidin-4-yl amino aryl sulfonamides: novel, potent, selective, orally active, and brain penetrant 5-HT₆ receptor antagonists” (J Med Chem, 2012).
Calls of active or inactive are those of the source. The calls are words filed in the database; no cut-off is given here.

What was measured:
Rattus norvegicus = assay: Procognitive activity in Wistar rat assessed as reversal of time delay-induced memory deficit at 1 to 10 mg/kg, po by object recognition test; format: functional, organism-based
[1] = Apparent volume of distribution in beagle dog at 1 mg/kg, iv; format: ADME, organism-based, Canis lupus familiaris; parameters: dose 1 mg/kg, route intravenous; conditions: in vivo, read-out: Vz
[2] = Half life in beagle dog at 1 mg/kg, iv; format: ADME, organism-based, Canis lupus familiaris; parameters: dose 1 mg/kg, route intravenous; conditions: in vivo
[3] = Apparent volume of distribution in Wistar rat at 5 mg/kg, iv; format: ADME, organism-based; parameters: dose 5 mg/kg, route intravenous; conditions: in vivo, read-out: Vz
[4] = biological target: T1, 5-hydroxytryptamine receptor 3A (Homo sapiens, UniProt P46098); assay: Binding affinity to 5HT3 receptor
T1 sequence (P46098 whole entry): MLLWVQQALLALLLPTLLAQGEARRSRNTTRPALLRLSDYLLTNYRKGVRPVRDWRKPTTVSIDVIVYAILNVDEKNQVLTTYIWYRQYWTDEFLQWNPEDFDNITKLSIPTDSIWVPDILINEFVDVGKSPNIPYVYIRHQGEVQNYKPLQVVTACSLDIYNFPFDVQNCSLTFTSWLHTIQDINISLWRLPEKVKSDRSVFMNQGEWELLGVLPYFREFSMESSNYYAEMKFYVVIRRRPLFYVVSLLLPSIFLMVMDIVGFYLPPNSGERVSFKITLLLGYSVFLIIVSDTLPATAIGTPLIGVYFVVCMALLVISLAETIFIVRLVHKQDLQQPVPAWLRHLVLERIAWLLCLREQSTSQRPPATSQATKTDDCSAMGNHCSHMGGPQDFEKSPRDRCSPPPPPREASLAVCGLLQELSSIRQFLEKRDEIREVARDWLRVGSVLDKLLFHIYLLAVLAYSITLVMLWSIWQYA

Histamine H1 receptor = Histamine H1 receptor (Homo sapiens, UniProt P35367); assay: Binding affinity to histamine H1 receptor
Cytochrome P450 3A4 = Cytochrome P450 3A4 (Homo sapiens, UniProt P08684); assay: Inhibition of CYP3A4 in human liver microsomes using midazolam as substrate after 5 mins by LC-MS/MS analysis in presence of NADPH
Cytochrome P450 3A4, sequence (P08684 whole entry): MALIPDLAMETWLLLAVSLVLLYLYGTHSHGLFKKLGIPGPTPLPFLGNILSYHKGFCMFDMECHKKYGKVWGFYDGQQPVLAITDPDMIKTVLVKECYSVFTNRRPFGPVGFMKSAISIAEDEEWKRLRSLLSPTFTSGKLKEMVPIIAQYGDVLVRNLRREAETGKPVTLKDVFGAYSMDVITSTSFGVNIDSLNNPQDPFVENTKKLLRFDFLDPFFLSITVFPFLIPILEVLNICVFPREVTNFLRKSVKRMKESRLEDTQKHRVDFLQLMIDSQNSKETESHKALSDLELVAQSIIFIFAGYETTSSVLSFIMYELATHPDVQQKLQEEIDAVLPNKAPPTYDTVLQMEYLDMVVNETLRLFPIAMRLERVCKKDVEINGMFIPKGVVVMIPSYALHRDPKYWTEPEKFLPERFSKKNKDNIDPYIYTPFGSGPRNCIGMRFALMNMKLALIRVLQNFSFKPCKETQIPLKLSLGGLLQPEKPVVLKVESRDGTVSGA

Histamine H1 receptor, sequence (P35367 whole entry): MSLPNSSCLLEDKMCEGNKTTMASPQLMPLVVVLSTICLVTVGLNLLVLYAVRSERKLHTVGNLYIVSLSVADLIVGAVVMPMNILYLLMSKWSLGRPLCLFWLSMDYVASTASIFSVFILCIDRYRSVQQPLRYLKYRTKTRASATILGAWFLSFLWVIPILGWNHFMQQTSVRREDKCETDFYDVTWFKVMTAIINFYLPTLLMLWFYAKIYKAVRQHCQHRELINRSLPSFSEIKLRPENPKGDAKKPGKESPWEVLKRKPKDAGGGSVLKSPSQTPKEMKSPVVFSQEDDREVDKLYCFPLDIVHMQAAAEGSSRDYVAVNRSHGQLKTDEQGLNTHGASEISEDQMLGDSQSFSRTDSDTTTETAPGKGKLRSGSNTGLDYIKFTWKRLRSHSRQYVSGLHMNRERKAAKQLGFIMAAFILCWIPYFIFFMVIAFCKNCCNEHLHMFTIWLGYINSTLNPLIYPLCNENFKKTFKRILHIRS

Vd [1]: 2.1 L/kg | half-life [2]: 2.3 h | Vd [3]: 10 L/kg | IC50 [4]: > 10 µM | Ki (Histamine H1 receptor): 0.586 µM | IC50 (Cytochrome P450 3A4): 10 µM
SMILES: COc1ccc(S(=O)(=O)n2cc(C)c3cc(Cl)cnc32)cc1NC1CCN(C)CC1
Activity (Rattus norvegicus): Active
